The values below come from US11919888B2, “Neprilysin inhibitors” (THERAVANCE BIOPHARMA R&D IP, LLC, priority 2012, dated 2024).

Molecules are shown by their SMILES.

This assay deals with T1, human NEP (Homo sapiens, UniProt P08473).
T1 construct: purchased R&D Systems, Minneapolis, MN 1182-ZN
T1 sequence (P08473 52-750 limits assumed): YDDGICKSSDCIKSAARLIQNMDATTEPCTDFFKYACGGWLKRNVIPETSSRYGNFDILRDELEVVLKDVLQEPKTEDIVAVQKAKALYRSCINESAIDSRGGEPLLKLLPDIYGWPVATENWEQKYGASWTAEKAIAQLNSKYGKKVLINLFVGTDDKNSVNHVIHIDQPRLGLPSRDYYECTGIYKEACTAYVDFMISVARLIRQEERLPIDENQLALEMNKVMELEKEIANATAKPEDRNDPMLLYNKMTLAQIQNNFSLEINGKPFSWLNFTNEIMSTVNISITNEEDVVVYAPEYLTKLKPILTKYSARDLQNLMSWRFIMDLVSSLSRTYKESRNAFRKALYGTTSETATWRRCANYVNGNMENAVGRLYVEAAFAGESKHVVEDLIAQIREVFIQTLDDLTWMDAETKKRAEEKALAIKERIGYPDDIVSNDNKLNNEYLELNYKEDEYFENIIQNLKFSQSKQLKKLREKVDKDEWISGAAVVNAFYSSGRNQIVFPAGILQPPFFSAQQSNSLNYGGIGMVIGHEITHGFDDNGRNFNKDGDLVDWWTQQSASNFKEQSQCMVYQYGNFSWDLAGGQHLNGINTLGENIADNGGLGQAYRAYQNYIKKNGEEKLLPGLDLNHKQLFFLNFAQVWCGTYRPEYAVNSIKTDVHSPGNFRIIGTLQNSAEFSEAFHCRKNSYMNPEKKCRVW
The assay is described as follows: In vitro enzyme inhibition assay at human NEP (fluorogenic peptide substrate). To be noted: recombinant human NEP; 10 μM fluorogenic substrate Mca-D-Arg-Arg-Leu-Dap-(Dnp)-OH; 37° C.; 30 minute preincubation; read-out: pKi value at human NEP (converted). The format is biochemical. As for the experimental part: In Vitro Assays for the Quantitation of Inhibitor Potencies (IC50) at Human and Rat NEP, and Human ACE
The inhibitory activities of compounds at human and rat neprilysin (EC 3.4.24.11; NEP) and human angiotensin converting enzyme (ACE) were determined using in vitro assays as described below.
Recombinant human NEP and recombinant human ACE were obtained commercially (R&D Systems, Minneapolis, MN, catalog numbers 1182-ZN and 929-ZN, respectively). The fluorogenic peptide substrate Mca-D-Arg-Arg-Leu-Dap-(Dnp)-OH (Medeiros et al. (1997) Braz. J. Med. Biol. Res. 30:1157-62; Anaspec, San Jose, CA) and Abz-Phe-Arg-Lys(Dnp)-Pro-OH (Araujo et al. (2000) Biochemistry 39:8519-8525; Bachem, Torrance, CA) were used in the NEP and ACE assays respectively.
The assays were performed in 384-well white opaque plates at 37° C. using the fluorogenic peptide substrates at a concentration of 10 μM in Assay Buffer (NEP: 50 mM HEPES, pH 7.5, 100 mM NaCl, 0.01% polyethylene glycol sorbitan monolaurate (Tween-20), 10 μM ZnSO4; ACE: 50 mM HEPES, pH 7.5, 100 mM NaCl, 0.01% Tween-20, 1 μM ZnSO4).
Test compounds were assayed over the range of concentrations from 10 μM to 20 pM. Test compounds were added to the enzymes and incubated for 30 minute at 37° C. prior to initiating the reaction by the addition of substrate. Reactions were terminated after 20 minutes of incubation at 37° C. by the addition of glacial acetic acid to a final concentration of 3.6% (v/v).
Plates were read on a fluorometer with excitation and emission wavelengths set to 320 nm and 405 nm, respectively. Inhibition constants were obtained by nonlinear regression of the data using the equation (GraphPad Software, Inc., San Diego, CA): ν=ν0/[1+(I/K′)] where ν is the reaction rate, ν0 is the uninhibited reaction rate, I is the inhibitor concentration and K′ is the apparent inhibition constant.
As to `CCOC[C@](C)(C[C@@H](Cc1ccc(-c2cc(Cl)ccc2F)cc1)NC(=O)c1cc(O)no1)C(=O)O` [Example 6N, (2S,4R)-5-(5′-Chloro-2′-fluorobiphenyl-4-yl)-2-ethoxymethyl-4-[(3-hydroxyisoxazole-5-carbonyl)amino]-2-methylpentanoic Acid], the Ki was not above 1 nM.
Turning to `CCOC[C@](C)(C[C@@H](Cc1ccc(-c2cc(Cl)ccc2F)cc1)NC(=O)c1cc(CC)no1)C(=O)O` [Example 6O, (2S,4R)-5-(5′-Chloro-2′-fluorobiphenyl-4-yl)-2-ethoxymethyl-4-[(3-ethylisoxazole-5-carbonyl)amino]-2-methylpentanoic Acid], the Ki was not above 1 nM.
The value for `CCOc1cc(C(=O)N[C@H](Cc2ccc(-c3cccc(Cl)c3)cc2)C[C@@](C)(CO)C(=O)O)n[nH]1` [Example 7A, (2S,4R)-5-(3′-Chlorobiphenyl-4-yl)-4-[(5-ethoxy-1H-pyrazole-3-carbonyl)amino]-2-hydroxymethyl-2-methylpentanoic Acid] was not above 1 nM.
Take `CCOc1cc(C(=O)N[C@H](Cc2ccc(-c3cc(Cl)ccc3F)cc2)C[C@@](C)(CO)C(=O)O)n[nH]1` [Example 7B, (2S,4R)-5-(5′-Chloro-2′-fluorobiphenyl-4-yl)-4-[(5-ethoxy-1H-pyrazole-3-carbonyl)-amino]-2-hydroxymethyl-2-methylpentanoic Acid]: the Ki was not above 1 nM.
Take `CC(C)c1cc(C(=O)N[C@H](Cc2ccc(-c3cc(Cl)ccc3F)cc2)C[C@@](C)(CO)C(=O)O)[nH]n1` [Example 7C, (2S,4R)-5-(5′-Chloro-2′-fluorobiphenyl-4-yl)-2-hydroxymethyl-4-[(5-isopropyl-2H-pyrazole-3-carbonyl)amino]-2-methylpentanoic Acid]: the Ki is not above 1 nM.
To `CCOc1cc(C(=O)N[C@H](Cc2ccc(-c3cc(Cl)ccc3F)cc2)C[C@@](C)(COC)C(=O)O)[nH]n1` [Example 7D, (2S,4R)-5-(5′-Chloro-2′-fluorobiphenyl-4-yl)-4-[(5-ethoxy-2H-pyrazole-3-carbonyl)-amino]-2-methoxymethyl-2-methylpentanoic Acid] belongs 1 to 3.16 nM.
To `COc1cc(C(=O)N[C@H](Cc2ccc(-c3cc(Cl)ccc3F)cc2)C[C@@](C)(CO)C(=O)O)n[nH]1` [Example 7E, (2S,4R)-5-(5′-Chloro-2′-fluorobiphenyl-4-yl)-2-hydroxymethyl-4-[(5-methoxy-1H-pyrazole-3-carbonyl)amino]-2-methylpentanoic Acid] belongs not above 1 nM; to `CC(C)Cc1cc(C(=O)N[C@H](Cc2ccc(-c3cc(Cl)ccc3F)cc2)C[C@@](C)(CO)C(=O)O)[nH]n1` [Example 7F, (2S,4R)-5-(5′-Chloro-2′-fluorobiphenyl-4-yl)-2-hydroxymethyl-4-[(5-isobutyl-2H-pyrazole-3-carbonyl)amino]-2-methylpentanoic Acid], not above 1 nM; to `CC(=O)c1cc(C(=O)N[C@H](Cc2ccc(-c3cc(Cl)ccc3F)cc2)C[C@@](C)(CO)C(=O)O)[nH]n1` [Example 8A, (2S,4R)-4-[(5-Acetyl-2H-pyrazole-3-carbonyl)amino]-5-(5′-chloro-2′-fluorobiphenyl-4-yl)-2-hydroxymethyl-2-methylpentanoic Acid], not above 1 nM.
The value for `COC[C@](C)(C[C@@H](Cc1ccc(-c2cc(Cl)ccc2F)cc1)NC(=O)c1cc(C(C)=O)n[nH]1)C(=O)O` [Example 8B, (2S,4R)-4-[(5-Acetyl-2H-pyrazole-3-carbonyl)amino]-5-(5′-chloro-2′-fluorobiphenyl-4-yl)-2-methoxymethyl-2-methylpentanoic Acid] was 1 to 3.16 nM.
Regarding `CCOC[C@](C)(C[C@@H](Cc1ccc(-c2cc(Cl)ccc2F)cc1)NC(=O)c1cc(C(C)=O)[nH]n1)C(=O)O` [Example 8C, (2S,4R)-4-[(5-Acetyl-1H-pyrazole-3-carbonyl)amino]-5-(5′-chloro-2′-fluorobiphenyl-4-yl)-2-ethoxymethyl-2-methylpentanoic Acid], the Ki is not above 1 nM.
